According to ChEMBL document CHEMBL1201862, “PubChem BioAssay data set” (2004):
“And” between values parts separate entries of the source, which are not always exact repeats. Identical values can stand only once.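 Compound exposure: 48 hours, 5 concentrations, 96-well plates. GI50 is the concentration that inhibits growth by half.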 The source made the active and inactive calls. Cut-off read from the data, not from the text of the source: active = GI50 up to about 1.1 µM and inactive = higher.

Assays:
Assay in all cases: DTP human tumour cell line panel, 48 h
DU-145 = tested on: DU-145
HL-60 = tested on: HL-60
HT-29 = tested on: HT-29
Hs-578T = tested on: Hs-578T
NCI-H460 = tested on: NCI-H460
NCI/ADR-RES = tested on: NCI/ADR-RES
OVCAR-5 = tested on: OVCAR-5
OVCAR-8 = tested on: OVCAR-8
SF-539 = tested on: SF-539
SNB-19 = tested on: SNB-19
TK-10 = tested on: TK-10
U-251 = tested on: U-251
UACC-257 = tested on: UACC-257
UACC-62 = tested on: UACC-62
UO-31 = tested on: UO-31
HOP-62 = tested on: HOP-62
OVCAR-4 = tested on: OVCAR-4
SN12C = tested on: SN12C
A498 = tested on: A498

Measured: GI50

CN1CCN(Cc2cc3c(nn2)-c2ccccc2C3=O)CC1
inactive: DU-145 > 100 µM | HL-60 21 µM | HT-29 53 µM | Hs-578T > 100 µM | NCI-H460 34.4 µM | NCI/ADR-RES 50.1 µM | OVCAR-5 > 100 µM | OVCAR-8 95.7 µM | SF-539 72.9 µM | SNB-19 43.5 µM | TK-10 > 100 µM | U-251 44.3 µM | UACC-257 19.2 µM | UACC-62 44.4 µM | UO-31 32.7 µM

O=C1CCCC(=O)N1n1c(Cc2ccc(Cl)cc2)n[nH]c1=O
inactive: DU-145 > 100 µM | HL-60 > 100 µM | HOP-62 > 100 µM | HT-29 > 100 µM | Hs-578T > 100 µM | NCI-H460 > 100 µM | NCI/ADR-RES > 100 µM | OVCAR-4 > 100 µM | OVCAR-5 > 100 µM | OVCAR-8 > 100 µM | SF-539 > 100 µM | SN12C > 100 µM | SNB-19 > 100 µM | TK-10 > 100 µM | U-251 > 100 µM | UACC-257 > 100 µM | UACC-62 > 100 µM | UO-31 > 100 µM

COc1cc(/C=C2/Oc3c(OC)cccc3C2=O)ccc1O
inactive: A498 94 µM | DU-145 49.1 µM | HL-60 36.6 µM | HOP-62 83.8 µM | HT-29 52.4 µM | Hs-578T > 100 µM | NCI-H460 32.4 µM | NCI/ADR-RES > 10 µM | OVCAR-4 > 100 µM | OVCAR-5 > 100 µM | OVCAR-8 > 100 µM | SN12C > 100 µM | SNB-19 91 µM | TK-10 > 100 µM | U-251 > 100 µM | UACC-257 > 100 µM | UACC-62 > 100 µM | UO-31 63 µM

CCSc1nnc2c(-c3ccccc3)n[nH]c2n1
inactive: DU-145 > 100 µM | HL-60 > 100 µM | HOP-62 59.8 µM | HT-29 > 100 µM | Hs-578T 30.4 µM | NCI-H460 > 100 µM | NCI/ADR-RES > 100 µM | OVCAR-4 > 100 µM | OVCAR-5 > 100 µM | OVCAR-8 66.8 µM | SF-539 90.8 µM | SNB-19 > 100 µM | TK-10 > 100 µM | U-251 > 100 µM | UACC-257 > 100 µM | UACC-62 > 100 µM | UO-31 > 100 µM

Nc1nc2c(C(=O)O)c3ccc([N+](=O)[O-])cc3c(=O)n2c2ccccc12
inactive: A498 43.7 µM | DU-145 16.5 µM | HL-60 32.1 µM | HOP-62 22.5 µM | HT-29 34.7 µM | Hs-578T 23.8 µM | NCI-H460 30.1 µM | NCI/ADR-RES 20.5 µM | OVCAR-4 31 µM | OVCAR-5 31 µM | OVCAR-8 18.7 µM | SN12C 18 µM | SNB-19 28.5 µM | U-251 27.2 µM | UACC-62 28.1 µM | UO-31 29.8 µM

COC(=O)C1=COC(C)C2CN3CCc4c([nH]c5cc(OC)c(OC)cc45)C3CC12 (configuration not stated)
inactive: A498 > 100 µM and 87.7 µM | DU-145 > 100 µM and 98.9 µM | HL-60 26.6 µM and 29.9 µM | HOP-62 89.7 µM | HT-29 34.2 µM and 34.7 µM | Hs-578T > 100 µM and 54 µM | OVCAR-5 > 100 µM | SF-539 > 100 µM and 66.7 µM | SN12C > 100 µM and 68.1 µM | SNB-19 66.8 µM and 75.3 µM | TK-10 > 100 µM and 87.1 µM | UACC-257 > 100 µM | UACC-62 99.8 µM and 88.7 µM | UO-31 51.1 µM and 54.2 µM

C=C[C@]1(C)CC(=O)C(C(C)C=O)[C@]12C(=O)Oc1cccc(C)c1C2=O (some centres not stated)
inactive: A498 25.9 µM | DU-145 16.8 µM | HL-60 4 µM | HOP-62 20.2 µM | HT-29 13.7 µM | Hs-578T 16.3 µM | NCI-H460 16.6 µM | OVCAR-4 17.2 µM | OVCAR-5 16.6 µM | OVCAR-8 16.1 µM | SF-539 16.2 µM | SN12C 16.3 µM | SNB-19 12.2 µM | TK-10 14.8 µM | U-251 14.6 µM | UACC-257 17.6 µM | UACC-62 16.1 µM | UO-31 15.5 µM

CCc1nc(Cl)c(Cl)c(Cl)n1
inactive: HL-60 > 100 µM | HOP-62 > 100 µM | HT-29 > 100 µM | Hs-578T > 100 µM | NCI-H460 > 100 µM | NCI/ADR-RES > 100 µM | OVCAR-4 > 100 µM | OVCAR-5 > 100 µM | OVCAR-8 > 100 µM | SF-539 > 100 µM | SN12C > 100 µM | SNB-19 > 100 µM | TK-10 > 100 µM | U-251 > 100 µM | UACC-257 > 100 µM | UACC-62 > 100 µM | UO-31 > 100 µM

CNC(=O)N1N[C@H](c2ccccc2)[C@@H]1c1ccccc1.OB(O)O
inactive: A498 20.6 µM | HL-60 23.7 µM | HOP-62 28.6 µM | HT-29 16.4 µM | Hs-578T 22.5 µM | NCI-H460 21.8 µM | NCI/ADR-RES 15.4 µM | OVCAR-4 42 µM | OVCAR-5 29.9 µM | OVCAR-8 14.5 µM | SF-539 17.9 µM | SN12C 25.5 µM | SNB-19 46.1 µM | TK-10 40.4 µM | U-251 20 µM | UACC-257 35.9 µM | UACC-62 13.2 µM | UO-31 22.5 µM

O=C(Nn1cnn2c(=O)c3ccccc3nc2c1=O)c1ccccc1
inactive: A498 > 100 µM | DU-145 > 100 µM | HL-60 > 100 µM | HOP-62 > 100 µM | HT-29 > 100 µM | Hs-578T > 100 µM | NCI-H460 > 100 µM | OVCAR-4 > 100 µM | OVCAR-5 > 100 µM | OVCAR-8 > 100 µM | SF-539 > 100 µM | SN12C > 100 µM | SNB-19 > 100 µM | TK-10 > 100 µM | U-251 > 100 µM | UACC-257 > 100 µM | UACC-62 > 100 µM | UO-31 > 100 µM

COC(=O)c1cc2ccc(O)c(O)c2cn1
inactive: A498 > 10 µM | DU-145 67.8 µM | HL-60 3.36 µM | HOP-62 20.6 µM | HT-29 > 10 µM | NCI-H460 19 µM | NCI/ADR-RES 7.59 µM | OVCAR-4 10.1 µM | OVCAR-5 19.5 µM | OVCAR-8 13.9 µM | SF-539 18.7 µM | SN12C 9.1 µM | SNB-19 > 10 µM | TK-10 20 µM | U-251 8.55 µM | UACC-257 15.4 µM | UACC-62 2.41 µM | UO-31 18.3 µM

CC(C(=O)N1C(=O)N(C(=O)C(C)C(O)c2ccccc2)C(c2ccccc2)C1c1ccccc1)C(O)c1ccccc1 (configuration not stated)
inactive: DU-145 21.3 µM | HL-60 2.27 µM | HOP-62 12.3 µM | HT-29 5 µM | Hs-578T 11.1 µM | NCI-H460 4.25 µM | OVCAR-4 13.4 µM | OVCAR-8 7.98 µM | SF-539 6.25 µM | SN12C 12.9 µM | SNB-19 5.52 µM | TK-10 22.6 µM | U-251 10.4 µM | UACC-62 10.5 µM | UO-31 5.33 µM
